Experimental data taken from patent US20190010167A1, “INHIBITORS OF THE MENIN-MLL INTERACTION” (Vitae Pharmaceuticals, Inc., priority 2015, published 2019).
pIC50: −log10 of the molar value. Structures can show the parent of a compound that is named as a salt.

How the values were obtained:
[1] = target: T1, wild-type menin / MLL-AF9 fusion protein (Homo sapiens, UniProt O00255); assay: AlphaLISA menin/MLL binding assay, wild-type menin (Assay 1); settings: biotinylated wild-type menin 5 nM, MLL-AF9-FLAG lysate
T1 construct: made in house; host or cells: E. coli (menin); HEK293 cleared lysate (MLL-AF9-FLAG)
T1 sequence (O00255 1-610): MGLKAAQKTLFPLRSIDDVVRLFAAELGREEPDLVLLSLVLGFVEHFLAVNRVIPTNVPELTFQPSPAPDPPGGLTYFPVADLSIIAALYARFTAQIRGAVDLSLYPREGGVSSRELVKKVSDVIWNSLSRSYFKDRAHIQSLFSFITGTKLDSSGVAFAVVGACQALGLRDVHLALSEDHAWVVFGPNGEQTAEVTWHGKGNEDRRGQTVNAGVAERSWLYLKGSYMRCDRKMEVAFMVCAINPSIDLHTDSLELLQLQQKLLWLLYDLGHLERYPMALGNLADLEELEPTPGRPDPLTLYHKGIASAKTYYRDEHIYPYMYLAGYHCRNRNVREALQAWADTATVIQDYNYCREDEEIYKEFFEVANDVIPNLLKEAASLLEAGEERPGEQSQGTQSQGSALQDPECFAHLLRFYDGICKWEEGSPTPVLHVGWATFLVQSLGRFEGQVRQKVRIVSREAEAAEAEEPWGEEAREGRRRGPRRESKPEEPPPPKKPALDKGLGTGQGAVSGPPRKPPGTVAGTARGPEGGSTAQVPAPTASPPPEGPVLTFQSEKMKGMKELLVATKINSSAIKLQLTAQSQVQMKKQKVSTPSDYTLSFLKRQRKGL
Procedure, shortened: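 Biotinylated wild-type or mutated menin (5 nM, E. coli-expressed) was preincubated 30 min at RT with compound and HEK293 lysate containing MLL1-1,396–AF9 1-92–FLAG. Buffer was 50 mM Tris-HCl pH 7.4, 5% DMSO, 50 mM NaCl, 0.01% BSA, 1 mM DTT. Anti-FLAG acceptor and streptavidin donor beads (10 μg/mL each) were then added for 60 min. IC50 came from a four-parameter fit of the Alpha signal inhibition.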

[2] = target: T2, menin/MLL (Gal4-Menin and MLL1-46-VP16) in HEK293 cells (Homo sapiens, UniProt O00255); assay: Mammalian cellular two-hybrid assay in HEK293 cells (Assay 2, cell assay); assay type: cell-based; settings: Gal4-Menin/MLL1-46-VP16 two-hybrid, NanoLuc luciferase reporter, 16-18 h
T2 construct: expressed in transfected cells; host or cells: HEK293 (ATCC)
Procedure: Potencies of inhibitor compounds against menin/MLL were tested in a mammalian cellular two-hybrid assay system. HEK293 cells (American Type Culture Collection (ATCC); Manassas, Va.) were co-transfected with three plasmids: one encoding Gal4-Menin (200 ng per 10^6 cells), another encoding MLL1-46-VP16 (100 ng per 10^6 cells), and a reporter plasmid pNL3.3-4×UAS (500 ng per 10^6 cells) encoding secreted NanoLuc® luciferase (Promega) with the upstream 4×UAS repeats for Gal4 binding. Transfection was performed in Opti-MEM® media using Lipofectamine® LTX with Plus™ Reagent (ThermoFisher Scientific) according to manufacturer's protocol. Cells were incubated with transfection reagents at 37° C. 5% CO2 for 5-6 h, harvested by trypsinization and centrifugation at 300×g for 5 min and resuspended in Gibco® DMEM media (phenol red-free, no antibiotics) containing 10% delipidated fetal bovine serum (FBS) (ThermoFisher Scientific). Concentration of cells in the media was adjusted to 3.5×10^5 cells/ml, and 100 μl of the cell suspension was dispensed into each well of 96-well Costar™ black clear bottom cell culture plates (Fisher Scientific). Tested compounds were added as 100 μL of 2× solutions in the media. Final concentration of DMSO was 0.1% in all wells. The cells were incubated with tested compounds at 37° C. 5% CO2 for 16-18 h. At the end of the incubation, 40 μL of the conditioned media from each well was transferred into each well of 96-well Costar™ black half-area plates (Fisher Scientific), to which 40 μl of 2× reconstituted NanoGlo® luciferase assay reagent (Promega) was added and thoroughly mixed on a microshaker for 2-3 min. Remaining media in the culture plates was removed by emptying the wells and blotting the plates on filter paper. The cells were lysed with 1× CellTiter-Glo® Luminescent Cell Viability Assay reagent (Promega) for assessing toxicity of the tested compounds. Both, Nano-Glo® and CellTiter-Glo® luminescence intensities were measured on EnVision® multilabel plate reader (PerkinElmer). Percent inhibition values were calculated based on Nano-Glo® luciferase activity observed with the tested compounds vs. DMSO control and commercially available menin inhibitor MI-2-2 (4-(4-(5,5-Dimethyl-4,5-dihydrothiazol-2-yl)piperazin-1-yl)-6-(2,2,2-trifluoroethyl)thieno[2,3-d]pyrimidine) (EMD Millipore, Cat. No. 444825) incubated with cells at 5 μM. These percent inhibition values were regressed against compound concentrations in the assay using non-linear 4-parameter logit curve fitting (XLFit, IDBS). Half maximal inhibitory concentrations (IC50) were calculated as the parameters of the fit corresponding to the inflection points on semi-logarithmic dose-response curves.

T2 sequence (P04386 1-147 partner limits assumed, species assumed, one chain of several): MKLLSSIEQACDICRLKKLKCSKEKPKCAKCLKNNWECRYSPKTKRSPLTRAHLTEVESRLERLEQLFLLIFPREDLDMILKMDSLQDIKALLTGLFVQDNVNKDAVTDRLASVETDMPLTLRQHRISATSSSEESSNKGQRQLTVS

Row | pIC50 [1] | pIC50 [2] | Structure (SMILES)
1 | 6.00 to 7.00 | 6.00 to 7.00 | CCC(C)CN1CC2(CCN(c3ncnc4sc(CC(F)(F)F)cc34)C2)C1 (stereo not drawn) [Example 110, 4-(2-(2-methylbutyl)-2,6-diazaspiro[3.4]octan-6-yl)-6-(2,2,2-trifluoroethyl)thieno[2,3-d]pyrimidine]
2 | > 7.00 | 6.00 to 7.00 | FC(F)(F)Cc1cc2c(N3CC4(CN(CC5CCCCC5)C4)C3)ncnc2s1 [Example 69, 4-(6-(cyclohexylmethyl)-2,6-diazaspiro[3.3]heptan-2-yl)-6-(2,2,2-trifluoroethyl)thieno[2,3-d]pyrimidine]
3 | > 7.00 | ≤ 6.00 | O=c1[nH]c2ccc(CN3CCC4(CCN(c5ncnc6sc(CC(F)(F)F)cc56)C4)C3)cc2n1CCO (stereo not drawn) [Example 120]
4 | > 7.00 | 6.00 to 7.00 | CC(=O)Nc1ccc(CN2CCC3(CCN(c4ncnc5sc(CC(F)(F)F)cc45)C3)C2)c(Cl)c1 (stereo not drawn) [Example 44, N-(3-chloro-4-((7-(6-(2,2,2-trifluoroethyl)thieno[2,3-d]pyrimidin-4-yl)-2,7-diazaspiro[4.4]nonan-2-yl)methyl)phenyl)acetamide]
5 | > 7.00 | 6.00 to 7.00 | FC(F)(F)Cc1cc2c(N3CCC4(CCN(Cc5ccccc5)C4)C3)ncnc2s1 (stereo not drawn) [Example 43, 4-(7-benzyl-2,7-diazaspiro[4.4]nonan-2-yl)-6-(2,2,2-trifluoroethyl)thieno[2,3-d]pyrimidine]
6 | 6.00 to 7.00 | ≤ 6.00 | CC(C)CN1CC2(CCN(c3ncnc4sc(CC(F)(F)F)cc34)CC2)C1 [Example 2, 4-(2-isobutyl-2,7-diazaspiro[3.5]nonan-7-yl)-6-(2,2,2-trifluoroethyl)thieno[2,3-d]pyrimidine]
7 | 6.00 to 7.00 | 6.00 to 7.00 | FC(F)(F)Cc1cc2c(N3CC4(CCN(Cc5ccccc5)CC4)C3)ncnc2s1 [Example 98, 4-(7-benzyl-2,7-diazaspiro[3.5]nonan-2-yl)-6-(2,2,2-trifluoroethyl)thieno[2,3-d]pyrimidine]
8 | > 7.00 | 6.00 to 7.00 | OC1CCC(CN2CC3(C2)CN(c2ncnc4sc(CC(F)(F)F)cc24)C3)CC1 (stereo not drawn) [Example 76, 4-((6-(6-(2,2,2-trifluoroethyl)thieno[2,3-d]pyrimidin-4-yl)-2,6-diazaspiro[3.3]heptan-2-yl)methyl)cyclohexan-1-ol]
9 | > 7.00 | 6.00 to 7.00 | COC(=O)N[C@H]1CC[C@H](CN2CCC3(CC2)CN(c2ncnc4sc(CC(F)(F)F)cc24)C3)CC1 [Example 107, methyl ((1r,4r)-4-((2-(6-(2,2,2-trifluoroethyl)thieno[2,3-d]pyrimidin-4-yl)-2,7-diazaspiro[3.5]nonan-7-yl)methyl)cyclohexyl)carbamate]
10 | > 7.00 | 6.00 to 7.00 | CC(C)CN1CC2(CCN(c3ncnc4sc(CC(F)(F)F)cc34)C2)C1 [Example 108, 4-(2-isobutyl-2,6-diazaspiro[3.4]octan-6-yl)-6-(2,2,2-trifluoroethyl)thieno[2,3-d]pyrimidine]
11 | > 7.00 | 6.00 to 7.00 | CC1(C)CCCC(CN2CC3(C2)CN(c2ncnc4sc(CC(F)(F)F)cc24)C3)C1 (stereo not drawn) [Example 65, 4-(6-((3,3-dimethylcyclohexyl)methyl)-2,6-diazaspiro[3.3]heptan-2-yl)-6-(2,2,2-trifluoroethyl)thieno[2,3-d]pyrimidine]
12 | > 7.00 | 6.00 to 7.00 | Cc1c(CN2CCC3(C2)CN(c2ncnc4sc(CC(F)(F)F)cc24)C3)ccc2[nH]c(C#N)cc12 [Example 92, 4-methyl-5-((2-(6-(2,2,2-trifluoroethyl)thieno[2,3-d]pyrimidin-4-yl)-2,6-diazaspiro[3.4]octan-6-yl)methyl)-1H-indole-2-carbonitrile]
13 | > 7.00 | 6.00 to 7.00 | CS(=O)(=O)N[C@H]1CC[C@H](CN2CCC3(CC2)CN(c2ncnc4sc(CC(F)(F)F)cc24)C3)CC1 [Example 106, N-((1r,4r)-4-((2-(6-(2,2,2-trifluoroethyl)thieno[2,3-d]pyrimidin-4-yl)-2,7-diazaspiro[3.5]nonan-7-yl)methyl)cyclohexyl)methanesulfonamide]
14 | > 7.00 | 6.00 to 7.00 | FC(F)(F)Cc1cc2c(N3CC4(CN(CC5CCCC5)C4)C3)ncnc2s1 [Example 68, 4-(6-(cyclopentylmethyl)-2,6-diazaspiro[3.3]heptan-2-yl)-6-(2,2,2-trifluoroethyl)thieno[2,3-d]pyrimidine]
15 | > 7.00 | 6.00 to 7.00 | COC(=O)N[C@H]1CC[C@H](CN2CCC3(CCN(c4ncnc5sc(CC(F)(F)F)cc45)C3)C2)CC1 (stereo partly drawn) [Example 46, Methyl ((1r,4r)-4-((7-(6-(2,2,2-trifluoroethyl)thieno[2,3-d]pyrimidin-4-yl)-2,7-diazaspiro[4.4]nonan-2-yl)methyl)cyclohexyl)carbamate]
16 | 6.00 to 7.00 | ≤ 6.00 | CC(C)CN1CCC2(CCN(c3ncnc4sc(CC(F)(F)F)cc34)CC2)C1 [Example 24, 4-(2-isobutyl-2,8-diazaspiro[4.5]decan-8-yl)-6-(2,2,2-trifluoroethyl)thieno[2,3-d]pyrimidine]
17 | > 7.00 | 6.00 to 7.00 | Cc1c(CN2CCC3(CCN(c4ncnc5sc(CC(F)(F)F)cc45)CC3)C2)ccc2[nH]c(C#N)cc12 [Example 26, 4-methyl-5-((8-(6-(2,2,2-trifluoroethyl)thieno[2,3-d]pyrimidin-4-yl)-2,8-diazaspiro[4.5]decan-2-yl)methyl)-1H-indole-2-carbonitrile]
18 | > 7.00 | 6.00 to 7.00 | CC(=O)Nc1cccc(CN2CCC3(CCN(c4ncnc5sc(CC(F)(F)F)cc45)C3)C2)c1 (stereo not drawn) [Example 52, N-(3-((7-(6-(2,2,2-trifluoroethyl)thieno[2,3-d]pyrimidin-4-yl)-2,7-diazaspiro[4.4]nonan-2-yl)methyl)phenyl)acetamide]
19 | > 7.00 | 6.00 to 7.00 | CC(=O)Nc1ccc(CN2CCC3(CCN(c4ncnc5sc(CC(F)(F)F)cc45)C3)C2)c(F)c1 (stereo not drawn) [Example 45, N-(3-fluoro-4-((7-(6-(2,2,2-trifluoroethyl)thieno[2,3-d]pyrimidin-4-yl)-2,7-diazaspiro[4.4]nonan-2-yl)methyl)phenyl)acetamide]
20 | > 7.00 | 6.00 to 7.00 | CC(=O)Nc1ccc(CN2CCC3(CCN(c4ncnc5sc(CC(F)(F)F)cc45)C3)C2)cc1 (stereo not drawn) [Example 34, N-(4-((7-(6-(2,2,2-trifluoroethyl)thieno[2,3-d]pyrimidin-4-yl)-2,7-diazaspiro[4.4]nonan-2-yl)methyl)phenyl)acetamide]
21 | > 7.00 | > 7.00 | Cc1c(CN2CCC3(CC2)CN(c2ncnc4sc(CC(F)(F)F)cc24)C3)ccc2[nH]c(C#N)cc12 [Example 96, 4-methyl-5-((2-(6-(2,2,2-trifluoroethyl)thieno[2,3-d]pyrimidin-4-yl)-2,7-diazaspiro[3.5]nonan-7-yl)methyl)-1H-indole-2-carbonitrile hydrochloride]
